Tests used:
[1] = test system: conjugative transfer of plasmid pKM101; assay: Conjugation assay, pKM101-carrying donor FM433 and plasmid-free recipient WL400; format: cell-based; settings: 50 μM, 2.5% DMSO
Description: Quantitation of conjugative DNA transfer was performed as described previously. For analysis of the inhibition of conjugation by fragments or small molecules, the cells were cultivated on agar and in liquid media in the presence of 50 μM of the small molecules in the presence of 2.5% DMSO.

[2] = target: T1, purified periplasmic domain of TraE (plasmid pKM101) (Escherichia coli, UniProt Q17U16); assay: Binding to TraE by fluorescence quenching (intrinsic UV fluorescence); settings: 20 °C, 20 mM HEPES, 50 mM NaCl, pH 7.4; single site saturation fit
Description: Protein overexpression and purification was performed as described previously. The TraE buffer was changed to 20 mM HEPES, 50 mM NaCl, pH 7.4. TraE protein concentrations were determined using the molar extinction coefficient at 280 nm of 25 900 M^−1 cm^−1.
Changes of the intrinsic UV fluorescence emission of TraE upon binding of fragments and small molecules were recorded at 20 °C with a Cary Eclipse Fluorometer (Varian) (λex 295 nm, λem 340 nm, 5 nm excitation and emission slit widths) in 20 mM HEPES, 50 mM NaCl, pH 7.4. The spectra were corrected for dilution effects and KD values were calculated from the ligand binding fluorescence data fitted to a single site saturation curve with constant background using the Grafit 6.0 software package.

[3] = test system: purified periplasmic domain of TraE; assay: In vitro DSS cross-linking assay of TraE dimerization; format: biochemical; settings: 0–1.6 mM molecule, normalized to control without small molecules
Description: Chemical crosslinking with disuccinimidyl suberate (DSS, Pierce) was performed as described previously[13] and the formation of crosslinking products was quantified by SDS-PAGE and using the ImageLab Software 4.0 (Bio-Rad).

[4] = target: T1, purified periplasmic domain of TraE (plasmid pKM101); assay: Differential scanning fluorimetry (DSF) thermal shift of TraE; format: binding; settings: 5 mM fragment or small molecule, 5 μM protein; hit when ΔTm higher than 1 °C
Description: A library of 505 fragments was used in this study of which 186 were previously described[14] and the others are listed in Supplementary Table 3. DSF experiments were performed as described previously. DSF was conducted using 5 μM of protein, 10X concentration of SYPRO Orange (from 5000X stock solution, ThermoFisher) in 20 mM HEPES, 50 mM NaCl, pH 7.4 and 5% final concentration of DMSO. For fragment-based screening and molecule optimization, fragments or small molecules were added to final concentrations of 5 mM. SYPRO Orange fluorescence was monitored over 20–95 °C with a LightCycler® 480 instrument (Roche, USA). The LightCycler® 480 Software (Roche) was used to calculate the first derivate of the resulting melting curve, with the steepest point of the slope being the Tm. Fragments were considered to be hits when ΔTm was higher than 1 °C, which is two times higher than the standard deviation of the DMSO control.

T1 sequence (Q17U16 entry or part of it): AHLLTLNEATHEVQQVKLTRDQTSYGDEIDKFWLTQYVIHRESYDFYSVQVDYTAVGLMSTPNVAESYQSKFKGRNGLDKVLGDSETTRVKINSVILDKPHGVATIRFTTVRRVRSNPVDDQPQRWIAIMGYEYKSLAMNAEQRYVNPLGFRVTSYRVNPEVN

## 2-chloroisonicotinic acid [4H10]
[1]
  Effect on conjugative transfer of pKM101: no effect on conjugation
[2]
  Kd: 32 ± 1.8 µM

## O=C(O)c1ccco1 [1E6, 2-furoic acid]
[1]
  Effect on conjugative transfer of pKM101: no effect on conjugation
[2]
  Kd: 23 ± 1.9 µM

## O=C(O)c1cc(-n2cccc2)ccn1 [compound 105055, 4-(1H-pyrrol-1-yl)pyridine-2-carboxylic acid]
[1]
  Effect on conjugative transfer of pKM101: significantly reduce conjugative DNA transfer
[2]
  Kd: 9.3 ± 0.4 µM
[3]
  Effect on formation of DSS-dependent cross-linking products of TraE (dimerization): significantly inhibit cross-linking
[4]
  Effect on thermal melting point of TraE (DSF): stabilized the protein

## O=C(O)c1ccnc(-c2ccco2)c1 [compound 239852, 2-(2-furyl)isonicotinic acid]
[1]
  Effect on conjugative transfer of pKM101: significantly reduce conjugative DNA transfer
[2]
  Kd: 19.6 ± 1.2 µM
[3]
  Effect on formation of DSS-dependent cross-linking products of TraE (dimerization): significantly inhibit cross-linking
[4]
  Effect on thermal melting point of TraE (DSF): stabilized the protein
